BindingDB's records for doi:10.1021/jm010087e (The University of Western Australia, 2001)

Experiment: Inhibitory activity against clostridium histolyticum collagenase

Compound | Ki [nM]
CC(C(=O)NO)N(Cc1ccccc1[N+](=O)[O-])S(=O)(=O)c1cccc(C(F)(F)F)c1 (stereo not given) [N-Hydroxy-2-[(2-nitro-benzyl)-(3-trifluoromethyl-benzenesulfonyl)-amino]-propionamide] | 5
CC(C(=O)NO)N(Cc1ccccc1[N+](=O)[O-])Sc1ccc([N+](=O)[O-])cc1 (stereo not given) [N-Hydroxy-2-[(2-nitro-benzyl)-(4-nitro-phenylsulfanyl)-amino]-propionamide] | 13
CC(C(=O)NO)N(Cc1ccccc1[N+](=O)[O-])S(=O)(=O)C(F)(F)C(F)(F)C(F)(F)C(F)(F)F (stereo not given) [N-Hydroxy-2-[(2-nitro-benzyl)-(nonafluorobutane-1-sulfonyl)-amino]-propionamide] | 10
CC(C(=O)NO)N(Cc1ccccc1[N+](=O)[O-])S(=O)(=O)c1cccc2cccnc12 (stereo not given) [N-Hydroxy-2-[(2-nitro-benzyl)-(quinoline-8-sulfonyl)-amino]-propionamide] | 9
CC(C(=O)NO)N(Cc1ccccc1[N+](=O)[O-])S(=O)(=O)c1cccs1 (stereo not given) [N-Hydroxy-2-[(2-nitro-benzyl)-(thiophene-2-sulfonyl)-amino]-propionamide] | 10
Cc1ccc(S(=O)(=O)N(Cc2ccccc2[N+](=O)[O-])C(C)C(=O)NO)cc1 (stereo not given) [N-Hydroxy-2-[(2-nitro-benzyl)-(toluene-4-sulfonyl)-amino]-propionamide] | 41
CC(C(=O)NO)N(Cc1ccccc1[N+](=O)[O-])S(=O)(=O)Cc1ccccc1 (stereo not given) [N-Hydroxy-2-[(2-nitro-benzyl)-phenylmethanesulfonyl-amino]-propionamide] | 55
CC(C(=O)NO)N(Cc1ccccc1[N+](=O)[O-])S(=O)(=O)C(Cl)(Cl)Cl (stereo not given) [N-Hydroxy-2-[(2-nitro-benzyl)-trichloromethanesulfonyl-amino]-propionamide] | 64
CC(C(=O)NO)N(Cc1ccccc1[N+](=O)[O-])S(=O)(=O)C(F)(F)F (stereo not given) [N-Hydroxy-2-[(2-nitro-benzyl)-trifluoromethanesulfonyl-amino]-propionamide] | 70
CC(C(=O)NO)N(Cc1ccccc1[N+](=O)[O-])S(=O)(=O)c1cccc([N+](=O)[O-])c1 (stereo not given) [N-Hydroxy-2-[(3-nitro-benzenesulfonyl)-(2-nitro-benzyl)-amino]-propionamide] | 10
CC(C(=O)NO)N(Cc1ccccc1[N+](=O)[O-])S(=O)(=O)c1ccc(I)cc1 (stereo not given) [N-Hydroxy-2-[(4-iodo-benzenesulfonyl)-(2-nitro-benzyl)-amino]-propionamide] | 34
CC(C(=O)NO)N(Cc1ccccc1[N+](=O)[O-])S(=O)(=O)c1ccc([N+](=O)[O-])cc1 (stereo not given) [N-Hydroxy-2-[(4-nitro-benzenesulfonyl)-(2-nitro-benzyl)-amino]-propionamide] | 13
CC(C(=O)NO)N(Cc1ccccc1[N+](=O)[O-])S(=O)(=O)c1cccc2ccccc12 (stereo not given) [N-Hydroxy-2-[(naphthalene-1-sulfonyl)-(2-nitro-benzyl)-amino]-propionamide] | 6
CC(C(=O)NO)N(Cc1ccccc1[N+](=O)[O-])S(=O)(=O)c1ccc2ccccc2c1 (stereo not given) [N-Hydroxy-2-[(naphthalene-2-sulfonyl)-(2-nitro-benzyl)-amino]-propionamide] | 8
CC(C(=O)NO)N(Cc1ccccc1[N+](=O)[O-])S(C)(=O)=O (stereo not given) [N-Hydroxy-2-[methanesulfonyl-(2-nitro-benzyl)-amino]-propionamide] | 86
CC(C(=O)NO)N(Cc1ccccc1[N+](=O)[O-])C(=O)NS(=O)(=O)c1ccccc1 (stereo not given) [N-hydroxy-2-((2-nitrobenzyl){[(phenylsulfonyl)amino]carbonyl}amino)propanamide] | 12
Cc1ccccc1S(=O)(=O)NC(=O)N(Cc1ccccc1[N+](=O)[O-])C(C)C(=O)NO (stereo not given) [N-hydroxy-2-[({[(2-methylphenyl)sulfonyl]amino}carbonyl)(2-nitrobenzyl)amino]propanamide] | 9
CC(C(=O)NO)N(Cc1ccccc1[N+](=O)[O-])S(=O)(=O)c1cccc(NC(=O)OC(C)(C)C)c1 (stereo not given) [{3-[(1-Hydroxycarbamoyl-ethyl)-(2-nitro-benzyl)-sulfamoyl]-phenyl}-carbamic acid tert-butyl ester] | 8
CC(C(=O)NO)N(Cc1ccccc1[N+](=O)[O-])S(=O)(=O)c1ccc(NC(=O)OC(C)(C)C)cc1 (stereo not given) [{4-[(1-Hydroxycarbamoyl-ethyl)-(2-nitro-benzyl)-sulfamoyl]-phenyl}-carbamic acid tert-butyl ester] | 9
COc1ccc(S(=O)(=O)N(Cc2ccccc2[N+](=O)[O-])C(C)C(=O)NO)cc1NC(=O)OC(C)(C)C (stereo not given) [{5-[(1-Hydroxycarbamoyl-ethyl)-(2-nitro-benzyl)-sulfamoyl]-2-methoxy-phenyl}-carbamic acid tert-butyl ester] | 9
